Where “and” joins values, the source holds several entries; their conditions need not be identical. Identical values can stand only once.
Legend:
[1] = target: vancomycin-detecting EAB sensor (methylene-blue-modified aptamer); assay: FFT-EIS binding curve (ket vs concentration) of vancomycin-detecting EAB sensor in whole bovine blood at 37° C; conditions: ± = estimated 95% confidence intervals, read-out: dissociation constant (KD), Hill-Langmuir isotherm fit of ket
Description: (§1) To functionalize the working electrode the disulfide bond was first reduced in the stock alkanethiol-and-methylene-blue modified aptamer by combining 14 μL of 10 mM tris (2-carboxyethyl) phosphine with 2 μL of 100 μM DNA for 1 h in the dark. The gold electrodes were electrochemically cleaned and roughened with Millipore water and followed by immersion for 1 h in 500 nM reduced DNA in PBS. The electrodes were then transferred to a 10 mM solution of 6-mercapto-1-hexanol in PBS and stored overnight before use.
All electrochemical measurements were performed using an Autolab PGStat128N. The potentiostat was configured in “high stability mode” with a current range of ±1 μA, which affects the filter characteristics. […] The potentiostat's native software (NOVA) was used to set the DC bias—the formal potential of methylene blue, as measured by cyclic voltammetry—on top of the AC perturbation. Voltage and current were recorded at 70 kHz using an SDS1202X-E oscilloscope. […]
Reference is made to FIG. 3. In panel (A) the vancomycin-detecting EAB sensor was immersed in whole bovine blood at 37° C. and challenged with increasing quantities of the target molecule. […]
The impedimetric properties of EAB sensors, which are sensitive to target concentration, can be rapidly measured using FFT-EIS to enable highly-time resolved molecular measurements. […]

[2] = FFT-EIS-interrogated EAB sensor in jugular vein, real-time plasma vancomycin after intravenous infusion; type: in vivo, Sprague-Dawley rats; conditions: rat jugular vein
Description: (§2) All in vivo experiments were performed on male Sprague-Dawley rats (4-5 months old). The rats weighed between 350-500 g and were pair-housed in a standard light cycle room (12:12 regular light cycle with lights on at 8 AM). They were allowed ad libitum access to food and water and the Institutional Animal Care and Use Committee (IACUC) of the University of California at Santa Barbara approved the experimental protocol which adhered to the guidelines given by the NIH Guide for Care and Use of Laboratory Animals.
Prior to the measurement, the rats were anesthetized using 4% isofluorane in a Plexiglas anesthesia chamber. […]
Aptamer-modified gold wire working electrodes were bundled with platinum counter and silver-silver chloride reference electrodes in a 20-gauge catheter (FIG. 4, panel A), and surgically inserted the resulting three-electrode sensor into the right jugular vein of an anesthetized rat. Full impedance spectra (containing 18 frequencies between 1 Hz and 1 kHz, FIG. 9) was then measured every 1.8 second for 2.5 hours. […]
FFT-EIS interrogation of EAB sensors provides a highly-time-resolved window into molecular physiology and pharmacokinetics (FIG. 5, panel A). […] Prior to drug infusion, vancomycin concentrations were measured fluctuating tightly around zero (1.1±1.7 μM). […]

[3] = test system: phenylalanine-detecting EAB sensor (methylene-blue-modified aptamer); assay: FFT-EIS binding curve of phenylalanine-detecting EAB sensor in whole, freshly-collected rat's blood at 37° C
Description: as §1
All electrochemical measurements were performed using an Autolab PGStat128N. The potentiostat was configured in “high stability mode” with a current range of ±1 μA, which affects the filter characteristics. For FFT-EIS measurements, the multi-sin waveform was generated by a DG812 arbitrary waveform generator (Rigol Technologies) and fed into the potentiostat's external voltage input using a BNC connection. The voltage waveform consisted of a superposition of 18 sine waves at logarithmically spaced frequencies ranging from 1 Hz to 1 kHz. The amplitude and phase of each sinusoidal oscillation were optimized for maximum signal-to-noise as discussed in the supporting information of Example 7, and the summed waveform was scaled to have a peak-to-peak amplitude of 25 mV. The potentiostat's native software (NOVA) was used to set the DC bias—the formal potential of methylene blue, as measured by cyclic voltammetry—on top of the AC perturbation. Voltage and current were recorded at 70 kHz using an SDS1202X-E oscilloscope. […] Data recording and processing were controlled by a custom Python program. Further details on the chosen waveform and artefact correction are described in supporting information of Example 7 (FIG. 7, FIG. 9, FIG. 11).
Impedance spectra were fitted to the equivalent circuit model using MEISP 3.0 after each experiment was complete. […]
Reference is made to FIG. 12. […] The endogenous concentration of phenylalanine in the blood (52 μM) was determined e using a fluorescent assay kit. […]

[4] = FFT-EIS-interrogated EAB sensor in jugular vein, real-time phenylalanine concentration in fasted and non-fasted rats; type: in vivo, Sprague-Dawley rats
Description: as §2
Prior to the measurement, the rats were anesthetized using 4% isofluorane in a Plexiglas anesthesia chamber. Anesthesia was then maintained via a nose cone for the entire duration of the experiment at a level of 2-3% isofluorane. The neck was shaved and dissected in order to surgically isolate the left and right jugular veins. After isolating the two jugular veins, each one was tied off using sterile 6-0 silk sutures. Prior to the measurement, the wires in the sensor were adjusted such that the counter and working electrode were exposed outside of the 20G catheter into the vein as previously described. A small incision was then made in each vein using spring-loaded microscissors that allowed us to insert the sensor-containing catheter into the right jugular vein and an infusion line into the left jugular vein. Both the sensor and drug infusion catheter were anchored in place using two sterile 6-0 silk sutures. 30 units of heparin were infused through the infusion line immediately after insertion of the sensor and prior to any recordings. To intravenously dose the rats at 30 mg/kg a precalculated volume of 0.05 M vancomycin solution was injected using a syringe pump.
Specifically, after calibrating a phenylalanine-detecting EAB sensor in vitro, FFT-EIS interrogation was used to measure the molecule's concentration in the jugular veins of anesthetized rats with 1.8 s resolution. Doing so, it was observed baseline phenylalanine concentrations of 41±10 μM (the latter reflects one standard deviation) in a fasted animal and 39±6 μM in a non-fasted animal, values in line with previous reports. Upon two intravenous infusions of additional phenylalanine, rapid rises to peak concentrations of 300-400 μM were observed, followed by rapid decays back to baseline in the fasted animal.
Reference is made to FIG. 6. Using FFT-EIS to interrogate phenylalanine-detecting EAB sensors this metabolite has been monitored in situ in the jugulars of live rats with 1.8 s resolution. Reference Is made to panel (A). A fasted animal was infused with two sequential doses of phenylalanine. In both cases, the concentration of free phenylalanine in the blood quickly decayed back to the pre-infusion baseline (41±10 μM, 31±9 μM, and 25±10 μM before injection, after the first injection, and after the final injection, respectively). Reference is made to Panel (B). In contrast, the return to the post-infusion baseline was slower in a non-fasted animal, which is consistent with previous reports regarding phenylalanine homeostasis. Here, the raw data (light points) are smoothed using a 13-s rolling average (darker trace). Concentration decay transients were fitted to a two compartment (i.e., biexponential) model (black traces).

[5] = FFT-EIS-interrogated lactate-detecting EAB sensor, real-time plasma lactate in a living rat; type: in vivo, Sprague-Dawley rats; conditions: about 1000 mg/kg sodium lactate intravenously
Description: FFT-EIS can be used to interrogate in vivo EAB sensors to monitor plasma lactate concentrations in a live rat in real time (FIGS. 13A and 13B). Lactate is an important clinical biomarker for sepsis and hypoxia during anesthesia, and lactate levels are useful to monitor sport performances. FFT-EIS is used to characterize the lactate-detecting EAB sensor in undiluted blood held at about 37° C. by stepwise changing the lactate level and measuring the corresponding ket value (FIG. 13A). […] Lactate concentrations can be determined in real time in a living rat by measuring changes in ket when employing the lactate detecting EAB sensor (FIG. 13B). Stable concentrations were measured prior to intravenously infusing about 1000 mg/kg sodium lactate.
The lactate aptamer is modified with a six-carbon thiol and the redox reporter methylene blue. The aptamer was reduced for 1 h in a solution containing about 11.26 μM aptamer and 8.87 mM TCEP and subsequently diluted till 500 nM in a PBS buffer plus 2 mM MgCl2. The intravenous sensors were fed through 20-gauge catheters and used the in vitro sensors as is. To form the lactate-detecting EAB sensor, the aptamer was deposited on the gold electrode by immersing the electrode for 1 h in a 500 nM reduced lactate aptamer solution followed by overnight immersion in 10 mM 6-mercaptohexanol to form a self-assembled monolayer. […]

[6] = fasted animal, first injection, ± = 95% confidence intervals
[7] = fasted animal, second injection, ± = 95% confidence intervals

**Q.** Which Kd [1] does the source give for `CN[C@H](CC(C)C)C(=O)N[C@H]1C(=O)N[C@@H](CC(N)=O)C(=O)N[C@H]2C(=O)N[C@H]3C(=O)N[C@H](C(=O)N[C@H](C(=O)O)c4cc(O)cc(O)c4-c4cc3ccc4O)[C@H](O)c3ccc(c(Cl)c3)Oc3cc2cc(c3O[C@@H]2O[C@H](CO)[C@@H](O)[C@H](O)[C@H]2O[C@H]2C[C@](C)(N)[C@H](O)[C@H](C)O2)Oc2ccc(cc2Cl)[C@H]1O` [vancomycin] here?
**A.** 0.144 ± 0.031 mM

**Q.** And the “time constant of monoexponential concentration decay” value ([2]; after 30 mg/kg intravenous infusion, three separate animals, ± = 95% confidence intervals)?
**A.** 33.1 ± 0.5 min and 37.3 ± 0.7 min and 47.4 ± 1.3 min

**Q.** What about the “measured concentration prior to drug infusion” value ([2]; pre-infusion) of the same molecule?
**A.** 1.1 ± 1.7 µM

**Q.** What does the source list for `N[C@@H](Cc1ccccc1)C(=O)O` [phenylalanine]?
**A.** ket,0 (ket in the absence of phenylalanine) ([3]; fitted): 62.9 s⁻¹; ket,max (ket at saturating phenylalanine) ([3]; fitted): 225.8 s⁻¹; Kd ([3]; read-out: dissociation constant KD, Langmuir isotherm fit of ket): 6.89 mM; baseline concentration after the final injection ([4]; fasted animal): 25 ± 10 µM; baseline concentration after the first injection ([4]; fasted animal): 31 ± 9 µM; time constant τ1, biexponential decay [4, 6]: 0.2 ± 0.1 min; time constant τ2, biexponential decay [4, 6]: 3.8 ± 0.2 min; time constant τ1, biexponential decay [4, 7]: 1.7 ± 0.1 min; time constant τ2, biexponential decay [4, 7]: 20 ± 2 min; peak concentration after intravenous infusion ([4]; fasted animal, two intravenous infusions): 300 to 400 µM; baseline concentration before injection ([4]; fasted animal, ± = one standard deviation): 41 ± 10 µM; baseline concentration ([4]; non-fasted animal): 39 ± 6 µM; time constant T2, biexponential decay ([4]; non-fasted animal): 35 ± 7 min; time constant τ1, biexponential decay ([4]; non-fasted animal): 3.3 ± 0.1 min

**Q.** Which “plasma lactate level course after infusion” value [5] does the source give for `CC(O)C(=O)O` (stereo not drawn) [lactate] here?
**A.** gradually returned to the prior baseline
